Experimental findings from patent US20240342292A1, “Compounds for the Degradation of EGFR Kinase” (BeiGene Switzerland GmbH, priority 2021, published 2024) are described below.

The subject of assay [1] is Del19/T790M/C797S EGFR. The assay is described as follows: EGFR degradation HTRF assay in H1975-clone #28 (DTC) cells. Type of assay: cell-based. Conditions: H1975 # 28 DTC (Del19/T790M/C797S), 16h treatment; for DC50: HTRF; for Dmax (%): maximum percentage of degradation. The essentials: (§1)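 H1975 clones with endogenous EGFR knocked out and lentivirally expressed mutant EGFR treated 16 h at 37 °C with compounds, 8 doses from 10 uM, 5-fold dilutions, 0.2% DMSO. Lysates read by HTRF (665/620 nm) overnight; DC50 from four-parameter fit.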
For orientation: In TR-FRET formats the signal depends on donor and acceptor labels being close together.

Assay [2] addresses T1, L858R/T790M/C797S EGFR (Homo sapiens, UniProt P00533, C797S/L858R/T790M).
T1 construct: expressed in transfected cells; host or cells: H1975 clone #25 (lentiviral over-expression, endogenous EGFR knocked out by sgRNA)
The assay is described as follows: EGFR degradation HTRF assay in H1975-clone #25 (LTC) cells. Conditions: 16h treatment; for DC50: H1975 # 25-LTC (L858R/T790M/C797S), HTRF; for Dmax: NCI-H1975, H1975 # 25-LTC (L858R/T790M/C797S), maximum percentage of degradation. Type of assay: cell-based. A digest of the protocol:
as §1

T1 sequence (P00533 25-1210 T790M/C797S/L858R): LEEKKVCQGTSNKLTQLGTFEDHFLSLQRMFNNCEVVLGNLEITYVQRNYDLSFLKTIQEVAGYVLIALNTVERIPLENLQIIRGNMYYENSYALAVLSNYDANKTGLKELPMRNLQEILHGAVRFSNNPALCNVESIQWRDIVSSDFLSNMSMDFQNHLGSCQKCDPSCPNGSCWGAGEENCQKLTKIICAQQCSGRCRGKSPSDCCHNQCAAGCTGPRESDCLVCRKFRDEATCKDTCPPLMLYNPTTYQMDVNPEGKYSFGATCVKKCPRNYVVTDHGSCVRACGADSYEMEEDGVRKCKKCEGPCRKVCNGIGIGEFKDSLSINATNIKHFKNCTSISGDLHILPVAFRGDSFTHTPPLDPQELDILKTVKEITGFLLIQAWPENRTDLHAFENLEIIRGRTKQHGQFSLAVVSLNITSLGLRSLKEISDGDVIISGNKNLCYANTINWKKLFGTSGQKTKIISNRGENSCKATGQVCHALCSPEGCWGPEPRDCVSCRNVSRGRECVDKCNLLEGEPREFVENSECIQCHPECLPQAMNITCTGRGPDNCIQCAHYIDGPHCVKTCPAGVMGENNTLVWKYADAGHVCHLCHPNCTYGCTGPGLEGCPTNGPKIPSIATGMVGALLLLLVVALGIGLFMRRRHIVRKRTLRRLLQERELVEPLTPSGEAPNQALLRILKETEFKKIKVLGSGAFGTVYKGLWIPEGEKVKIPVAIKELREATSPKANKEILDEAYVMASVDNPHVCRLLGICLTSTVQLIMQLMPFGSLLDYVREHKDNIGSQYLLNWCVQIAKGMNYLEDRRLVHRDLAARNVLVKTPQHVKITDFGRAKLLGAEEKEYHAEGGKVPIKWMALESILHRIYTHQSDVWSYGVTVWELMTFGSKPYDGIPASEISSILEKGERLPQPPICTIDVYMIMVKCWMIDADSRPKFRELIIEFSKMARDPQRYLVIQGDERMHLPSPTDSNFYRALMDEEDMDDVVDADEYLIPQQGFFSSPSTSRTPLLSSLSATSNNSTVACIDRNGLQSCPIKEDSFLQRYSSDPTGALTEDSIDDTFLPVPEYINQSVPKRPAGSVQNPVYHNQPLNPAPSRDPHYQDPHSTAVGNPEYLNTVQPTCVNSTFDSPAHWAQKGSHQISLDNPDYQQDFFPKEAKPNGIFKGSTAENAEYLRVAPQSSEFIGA

One may read the DC50 as the concentration at which degradation of the target reaches its halfway point. For orientation: Dmax means the largest share of the target that was removed. A higher Dmax goes with deep degradation. As for `Cc1cc2cc(n1)-c1cnn(C)c1OCCC[C@@H](C)CN1/C(=N/C2=O)Nc2ccc(CN3CCN(C(=O)[C@@H]4CCN(c5cc(F)c(C6CCC(=O)NC6=O)c(F)c5)C4)[C@H](C)C3)cc21` (stereo partly drawn) [Example 106, (R)-3-(2,6-difluoro-4-((R)-3-((R)-2-methyl-4-(((R,E)-1^1,2^6m7-trimethyl-3-oxo-5^2,5^3-dihydro-1^1H,5^1H -11-oxa-4-aza-5(2,1)-benzo[d]imidazola-2(2,4)-pyridina-1(4,5)-pyrazolacycloundecaphane-5^6-yl)methyl)piperazine-1-carbonyl)pyrrolidin-1-yl)phenyl)piperidine-2,6-dione], in assay [1], half-maximal degradation (DC50) was put at 1.2 nM and the “Dmax (%)” value was 74.4%. Further, in assay [2], half-maximal degradation (DC50) was put at 1.7 nM and the Dmax was 79.1%.
On the same counts, the results for `Cc1cc2cc(n1)-c1cnn(C)c1OCCC1CC1CN1/C(=N/C2=O)Nc2ccc(C(=O)N(C)C3CCN(CCc4cc(F)c([C@H]5CCC(=O)NC5=O)c(F)c4)CC3)cc21` (stereo partly drawn) [Example 234, (E)-N-(1-(4-((R)-2,6-dioxopiperidin-3-yl)-3,5-difluorophenethyl)piperidin-4-yl)-N,1^1,2^6-trimethyl-3-oxo-5^2,5^3-dihydro-1^1H,5^1H-10-oxa-4-aza-5(2,1)-benzo[d]imidazola-2(2,4)-pyridina-1(4,5)-pyrazola-7(1,2)-cyclopropanacyclodecaphane-5^6-carboxamide] are 0.637 nM, 85.75%, 1.09 nM and 90.1%.
The corresponding values for `CO[C@@H]1CN(CCc2cc(F)c([C@H]3CCC(=O)NC3=O)c(F)c2)CC[C@@H]1NC(=O)c1ccc2c(c1)N1C[C@H](C)CCCOc3c(cnn3C)-c3cc(cc(C)n3)C(=O)/N=C/1N2` [Example 245, (R,E)-N-((3R,4S)-1-(4-((R)-2,6-dioxopiperidin-3-yl)-3,5-difluorophenethyl)-3-methoxypiperidin-4-yl)-1^1,2^5,7-trimethyl-3-oxo-5^2,5^3-dihydro-1^1H,5^1H-11-oxa-4-aza-5(2,1)-benzo[d]imidazola-2(2,4)-pyridina-1(4,5)-pyrazolacycloundecaphane-5^6-carboxamide] are 0.534 nM, 81.9%, 0.487 nM and 94%.
The corresponding values for `Cc1cc2cc(n1)-c1cnn(C)c1OCCC[C@@H](C)CN1/C(=N/C2=O)Nc2ccc(N3CCN([C@H]4CCN(c5cc(F)c([C@H]6CCC(=O)NC6=O)c(F)c5)C[C@@H]4F)CC3)cc21` (single isomer, unassigned) [Example 424] are 0.794 nM, 82.75%, 2.51 nM and 89.8%.
Turning to `Cc1cc2cc(n1)-c1cnn(C)c1OCCC[C@@H](C)CN1/C(=N/C2=O)Nc2ccc(C(=O)N(C)[C@@H]3C[C@H]4CC[C@@H](C3)N4CCc3cc(F)c([C@H]4CCC(=O)NC4=O)c(F)c3)cc21` [Example 265, (R,E)-N—((1R,3S,5S)-8-(4-((R)-2,6-dioxopiperidin-3-yl)-3,5-difluorophenethyl)-8-azabicyclo[3.2.1]octan-3-yl)-N,1^1,2^6,7-tetramethyl-3-oxo-5^2,5^3-dihydro-1^1H,5^1H-11-oxa-4-aza-5(2,1)-benzo[d]imidazola-2(2,4)-pyridina-1(4,5)-pyrazolacycloundecaphane-5^6-carboxamide], in assay [1], it took 0.625 nM to reach half-maximal degradation (DC50) and the “Dmax (%)” value is 79.26%. Moreover, in assay [2], the DC50 turned out to be 0.246 nM and the Dmax came out at 90.9%.
The corresponding values for `Cc1cc2cc(n1)-c1cnn(C)c1OCCC[C@@H](C)CN1/C(=N/C2=O)Nc2ccc(N(C)C3CN(C4CCN(c5cc(F)c([C@H]6CCC(=O)NC6=O)c(F)c5)CC4)C3)cc21` [Example 438, (R)-3-(2,6-difluoro-4-(4-(3-(methyl((R,E)-1^1,2^6,7-trimethyl-3-oxo-5^2,5^3-dihydro-1^1H,5^1H-11-oxa-4-aza-5(2,1)-benzo[d]imidazola-2(2,4)-pyridina-1(4,5)-pyrazolacycloundecaphane-5^6-yl)amino)azetidin-1-yl)piperidin-1-yl)phenyl)piperidine-2,6-dione] are 0.983 nM, 72.51%, 0.964 nM and 85.6%.
On the same counts, the results for `Cc1cc2cc(n1)-c1cnn(C)c1OCCC[C@@H](C)CN1/C(=N/C2=O)Nc2ccc(CN3CCN(C(=O)C4CCN(c5cc(F)c([C@H]6CCC(=O)NC6=O)c(F)c5)CC4)CC3)cc21` [Example 162, (R)-3-(2,6-difluoro-4-(4-(4-(((R,E)-1^1,2^6,7-trimethyl-3-oxo-5^2, 5^3-dihydro-1^1H,5^1H-11-oxa-4-aza-5(2,1)-benzo[d]imidazola-2(2,4)-pyridina-1(4,5)-pyrazolacycloundecaphane-5^6-yl)methyl)piperazine-1-carbonyl)piperidin-1-yl)phenyl)piperidine-2,6-dione] are 0.557 nM, 71.45%, 0.598 nM and 79.1%.
Regarding `Cc1cc2cc(n1)-c1cnn(C)c1OCCC[C@@H](C)CN1/C(=N/C2=O)Nc2ccc(CN3CCN(C(=O)[C@@H]4CCN(c5cc(F)c([C@H]6CCC(=O)NC6=O)c(F)c5)C4)C[C@@H]3CO)cc21` [Example 195, (R)-3-(2,6-difluoro-4-((R)-3-((R)-3-(hydroxymethyl)-4-(((R,E)-1^1,2^5,7-trimethyl-3-oxo-5^2,5^3-dihydro-1^1H,5^1H-11-oxa-4-aza-5(2,1)-benzo[d]imidazola-2(2,4)-pyridina-(4,5)-pyrazolacycloundecaphane-5^6-yl)methyl)piperazine-1-carbonyl)pyrrolidin-1-yl)phenyl)piperidine-2,6-dione], in assay [1], the DC50 came to 0.712 nM and the “Dmax (%)” value was determined as 76.37%. In assay [2], this compound showed a half-maximal degradation concentration (DC50) of 0.731 nM and a Dmax of 85.5%.
The corresponding values for `Cc1cc2cc(n1)-c1cnn(C)c1OCCC[C@@H](C)CN1/C(=N/C2=O)Nc2ccc(N3CCC(N4CCN(c5cc(F)c([C@H]6CCC(=O)NC6=O)c(F)c5)CC4=O)CC3)cc21` [Example 450, (R)-3-(2,6-difluoro-4-(3-oxo-4-(1-((R,E)-1^1,2^6,7-trimethyl-3-oxo-5^2,5^3-dihydro-1^1H,5^1H-11-oxa-4-aza-5(2,1)-benzo[d]imidazola-2(2,4)-pyridina-1(4,5)-pyrazolacycloundecaphane-5^6-yl)piperidin-4-yl)piperazin-1-yl)phenyl)piperidine-2,6-dione] are 0.647 nM, 83.01%, 0.678 nM and 88.7%.
For the compound `Cc1cc2cc(n1)-c1cnn(C)c1OCCC[C@@H](C)CN1/C(=N/C2=O)Nc2ccc(N3CCN(C4CCN(c5cc(F)c([C@H]6CCC(=O)NC6=O)c(F)c5)CC4)C[C@@H]3C)cc21` [Example 383, (R)-3-(2,6-difluoro-4-(4-((S)-3-methyl-4-((R,E)-1^1,2^6,7-trimethyl-3-oxo-5^2,5^3-dihydro-1^1H,5^1H-11-oxa-4-aza-5(2,1)-benzo[d]imidazola-2(2,4)-pyridina-1(4,5)-pyrazolacycloundecaphane-5-yl)piperazin-1-yl)piperidin-1-yl)phenyl)piperidine-2,6-dione], in assay [1], the DC50 turned out to be 2.19 nM and the “Dmax (%)” value came to 73.18%. In assay [2], it took 1.34 nM to reach half-maximal degradation (DC50) and the Dmax was 88.8%.
The corresponding values for `Cc1cc2cc(n1)-c1cnn(C)c1OCCC[C@@H](C)CN1/C(=N/C2=O)Nc2ccc(C(=O)N(C)C3CCC(N(C)CCc4cc(F)c([C@H]5CCC(=O)NC5=O)c(F)c4)CC3)cc21` (stereo partly drawn) [Example 278, (R,E)-N-(4-((4-((R)-2,6-dioxopiperidin-3-yl)-3,5-difluorophenethyl)(methyl)amino)cyclohexyl)-N,1^1,2^6,7-tetramethyl-3-oxo-5^2,5^3-dihydro-1^1H,5^1H-11-oxa-4-aza-5(2,1)-benzo[d]imidazola-2(2,4)-pyridina-1(4,5)-pyrazolacycloundecaphane-5^6-carboxamide] are 0.567 nM, 52.21%, 0.804 nM and 74.2%.
On the same counts, the results for `Cc1cc2cc(n1)-c1cnn(C)c1OCCC[C@@H](C)CN1/C(=N/C2=O)Nc2ccc(C(=O)N3CCC(C4CN(CCc5cc(F)c([C@H]6CCC(=O)NC6=O)c(F)c5)C4)CC3)cc21` [Example 312, (R)-3-(2,6-difluoro-4-(2-(3-(1-((R,E)-1^1,2^6,7-trimethyl-3-oxo-5^2,5^3-dihydro-1^1H,5^1H-11-oxa-4-aza-5(2,1)-benzo[d]imidazola-2(2,4)-pyridina-1(4,5)-pyrazolacycloundecaphane-5^6-carbonyl)piperidin-4-yl)azetidin-1-yl)ethyl)phenyl)piperidine-2,6-dione] are 0.689 nM, 47.95%, 0.906 nM and 85.8%.
On the same counts, the results for `Cc1cc2cc(n1)-c1cnn(C)c1OCCC[C@@H](C)CN1/C(=N/C2=O)Nc2ccc(C3CCN(CCc4cc(F)c([C@H]5CCC(=O)NC5=O)c(F)c4)CC3)cc21` [Example 330, (R)-3-(2,6-difluoro-4-(2-(4-((R,E)-1^1,2^6,7-trimethyl-3-oxo-5^2,5^3-dihydro-1^1H,5^1H-11-oxa-4-aza-5(2,1)-benzo[d]imidazola-2(2,4)-pyridina-1(4,5)-pyrazolacycloundecaphane-5^6-yl)piperidin-1-yl)ethyl)phenyl)piperidine-2,6-dione] are 0.633 nM, 66.1%, 0.972 nM and 87.1%.
